PMC12030314, “Biomarker-Driven Pharmacokinetics and Efficacy of Polymyxin B in Critically Ill Patients with XDR-GN Pneumonia” (Pharmaceuticals, 2025)
Where two headings read alike, the source gives them in different places. Where a SMILES comes first, the peptide text is derived from it. Bridges are numbered along the chain shown (N, C = ends). [ ]: non-standard residue; d: D form. The star is where a group is joined. X1 = CC[C@H](C)CCCCC(=O)*; Dab = NCC[C@H](N)C(=O)O

What was measured:
plasma protein = assay: Binding of PMB in plasma, rapid equilibrium dialysis; type: in vitro ADME; conditions: human, rapid equilibrium dialysis (Pierce RED), pooled patient plasma pH 7.4, 300 μL against PBS pH 7.4, 37 °C, triplicate, mean, read-out: plasma protein-binding ratio (converted)
Experimental: The plasma protein binding of PMB was determined by rapid equilibrium dialysis device purchased from Thermo Scientific™ (Pierce RED, CAS90006, Rockford, IL, USA). For each patient, three plasma samples (totaling approximately 1 ml) were pooled (pH adjusted to 7.4), and the test was performed in triplicate. For each, 300 μL was dialyzed against an equal volume of isotonic phosphate-buffered saline (pH 7.4) at 37 °C for 4 h. PMB concentrations were determined, and the extent of protein binding was calculated as 1 minus the ratio of the PMB concentration in the buffer to that in the plasma and is expressed as a percentage.

[1] = system: XDR-GN bacterial nosocomial pneumonia; assay: Clinical efficacy (treatment success) of PMB; type: in vivo, human; conditions: 27 enrolled patients; iv 100 mg loading, 50 mg q12h
Source text: The decision to administer PMB was made by the attending physicians. Patients with conditions that could alter the PK of PMB, who had rapidly declining or fluctuating renal function (serum creatinine ± 50% since the start of therapy, who could affect the removal of drugs from the body), who were pregnant (hormone levels, increased blood volume, and other factors affecting drug processes), who had severe burns/head/spinal cord injury (high metabolic status, fluid redistribution, reduced plasma protein levels, and other factors affecting drug processes), who had cystic fibrosis (decreased distribution of PMB in lungs), or who were severely under- or overweight (±40% of ideal body weight, changes of fat volume, and body surface area affecting drug processes) were excluded. The study was approved by the Ethics Committees of Peking Union Medical College Hospital and the Declaration of Helsinki. Written informed consent was obtained from all patients or their legal representatives.
The primary PD response was evaluated by PK/PD indices. […] The secondary PD response was evaluated by clinical parameters. […] The percentage of patients who achieved the PK/PD targets or treatment success was calculated. Variables potentially related to clinical efficacy were assessed. […] The optimal cutoff point for the PK/PD indices was calculated with the Youden index.

[2] = Plasma pharmacokinetics of intravenous PMB in critically ill patients (UPLC-MS/MS; noncompartmental and two-compartment analysis); type: in vivo, human; conditions: for Cmax: read-out: Css,max; for AUC(0-t): read-out: AUCss,0–24h
Experimental: The patients received a 100 mg loading dose followed by a maintenance dose of 50 mg every 12 h. PMB was administered by short-term infusions (60 min). Blood samples were collected from each patient in three stages.
Phase of first dose: Blood samples were collected at defined time points to capture PK data.
Phase of steady state: Although a steady state of PMB concentration can be achieved after 48 h of treatment, considering the special condition of critically ill patients, blood samples were collected immediately before the initiation of the seventh dose (trough) and immediately at the end of the seventh dose (peak).
During the last dose phase, blood samples were collected immediately before the initiation of the last dose, immediately at the end of the last dose, and randomly (at least eight blood samples for each person) at 1.5, 2, 2.5, 3, 5, 7, 9, 12, 15, 19, 24, 48, and 72 h after completing the infusion.
Blood and BAL samples were centrifuged for 10 min (3000 rpm) and immediately stored at −80 °C until analysis.
PMB concentrations in the samples were quantified by monitoring the total concentrations of polymyxin B1 (PB1), polymyxin B2 (PB2), polymyxin B3 (PB3), and isoleucine polymyxin B1 (I-PB1) via a validated ultraperformance liquid chromatography–tandem mass spectrometry (UPLC-MS/MS) assay. The standard substances, including PB1 (CAS P037), PB2 (CAS P037), PB3 (CAS P040), and I-PB1 (CAS P038), were purchased by TOKU-E Company (>99% pure, Bellingham, WA, USA). ACQUITY UPLC system, Quattro PremierXE triple quadrupole mass spectrometer, electrospray isonizaiton source (ESI), and Masslynx 4.1 data processing software were used in this study (Waters Company, Milford, MA, USA). An Acquity UPLC BEH C18 column (50 mm × 2.1 mm internal diameter, 1.8 μm) purchased from Waters (Milford, MA, USA) was used. The mobile phase comprised a 0.2% formic acid aqueous solution and a 0.2% formic acid acetonitrile solution, and the flow rate was 0.3 mL/min. Mass spectrometric detection was performed in positive electrospray ionization (ESI+) mode with multiple reaction monitoring (MRM). The optimized transitions were set as follows: m/z 602.7→101.0 for PB1 and I-PB1, m/z 595.7→100.9 for PB2 and PB3, and […] for the internal standard norvancomycin. Plasma and BAL supernatant was aliquoted into microcentrifuge tubes and sequentially treated with 20 μL norvancomycin or 200 μL 5% trichloroacetic acid. 1 μL plasma and 2 μL BAL of supernatant were collected separately for the detection of PMB concentrations.
Analysis of independently prepared quality control samples indicated good reproducibility (coefficients of variation ≤ 8.39%) and accuracy (measured concentrations ≤ 10.0% from target concentrations). The standard curve was linear over the range of 0.5 to 10,000 ng/mL, with precision and accuracy of less than 15%. The regression coefficient was 0.9985. The relative standard deviation values for the intra- and inter-day precision at low, middle, and high levels were all less than 6%, and the recovery rate was 83.1–85.4%.
The plasma concentration–time values for PMB were analysed via Phoenix WinNonlin 8.1. The data were explored via noncompartmental and two-compartment PK models. The principles for final model selection were a low Akaike information criterion (AIC), visual evaluation of individual plasma concentration–time profiles, and precision of parameter estimations on the basis of one sample t-test or the correlation coefficient. The following PK parameters were generated via noncompartmental and two-compartment analysis: Cmax, CL, Vd, t1/2, k, and AUC was determined via the linear trapezoidal rule. The PMB Css,avg was calculated from the Cmax and Cmin that were directly obtained from the observed peak and trough concentrations in the stable state. The simulated concentrations were obtained via compartment PK models. Factors that affect PMB PK parameters were also evaluated.

PK/PD targets attainment = type: in vivo, human
Experimental: The primary PD response was evaluated by PK/PD indices. An AUCss,0–24h of 50–100 mg·hour/L or a Css,avg of 2–4 mg/L was used as the PK/PD targets for PMB. The secondary PD response was evaluated by clinical parameters. An achievement of the treatment success at the end of treatment was defined by either (1) physicians’ judgment of improvement in signs and symptoms (reasonable compromise on the basis of survival, stable, or improved haemodynamics and oxygenation index and improved chemical and physiological indices of infection) or (2) microbiological elimination. […] The percentage of patients who achieved the PK/PD targets or treatment success was calculated. Variables potentially related to clinical efficacy were assessed. Receiver operating characteristic (ROC) curves were drawn to investigate and compare different indices as predictors of clinical efficacy. The optimal cutoff point for the PK/PD indices was calculated with the Youden index.

[3] = 27 critically ill patients, iv 100 mg loading, 50 mg q12h, noncompartmental analysis after last dose, mean
[4] = Treatment Failure (n = 5), median [IQR]
[5] = human, plasma, iv, 50 mg, Treatment Success (n = 22), median [IQR]
[6] = human, plasma, iv, 50 mg, Table 2, 27 enrolled patients, mean

Compound: CC[C@H](C)CCCCC(=O)N[C@@H](CCN)C(=O)N[C@H](C(=O)N[C@@H](CCN)C(=O)N[C@H]1CCNC(=O)[C@H]([C@@H](C)O)NC(=O)[C@H](CCN)NC(=O)[C@H](CCN)NC(=O)[C@H](CC(C)C)NC(=O)[C@@H](Cc2ccccc2)NC(=O)[C@H](CCN)NC1=O)[C@@H](C)O [PMB, polymyxin B] (X1-[Dab]T[Dab][Dab][Dab][dF]L[Dab][Dab]T; lactam 4-C)
- fraction unbound at 4 h (plasma protein): 0.145
- treatment success (response rate) [1]: 81.48%
- half-life (t1/2) [2, 3]: 19.56 h
- volume of distribution (Vd) [2, 3]: 30.44 L
- Css,avg ([2]; Table 2, 27 enrolled patients, mean): 5.1 µg/mL
- Css,avg ([2]; Total (n = 27), median [IQR]): 5.2 [3.8, 5.9]
- Css,max ([2]; Total (n = 27), median [IQR]): 8.7 [6.6, 10.1]
- Css,avg [2, 4]: 6.6 [5.9, 7.7]
- Css,max [2, 4]: 11.1 [9.9, 11.4]
- Css,avg ([2]; Treatment Success (n = 22), median [IQR]): 5.0 [3.7, 5.5]
- Cmax ([2]; human, plasma, iv, 50 mg, Table 2, 27 enrolled patients, iv 100 mg loading, 50 mg q12h, mean): 8.3 µg/mL
- AUC(0-t) ([2]; human, plasma, iv, 50 mg, Total (n = 27), median [IQR]): 101 µg·h/mL
- AUC(0-t) ([2]; human, plasma, iv, 50 mg, Treatment Failure (n = 5), median [IQR]): 64.7 µg·h/mL
- AUC(0-t) [2, 5]: 112 µg·h/mL
- Cmax [2, 5]: 8.7 µg/mL
- Vd [2, 6]: 30.4 L
- clearance [2, 6]: 26.7 mL/min
- half-life [2, 6]: 19.6 h
- AUC(0-t) [2, 6]: 110 µg·h/mL
- treatment success among patients who reached the target Css,avg of 2–4 mg/L (PK/PD targets attainment; 9 patients): 77.78%
- treatment success among patients who reached the target AUCss,0–24h of 50–100 (PK/PD targets attainment; 13 patients): 76.95%
- treatment success among patients who exceeded the target AUCss,0–24h (PK/PD targets attainment; in vivo): 92.31%
